Measurements published in US9387231B2, “Compositions comprising a Brd4 antagonist and methods for the treatment of HIV” (THE CHILDREN'S HOSPITAL OF PHILADELPHIA, priority 2011, dated 2016).

What was measured:
Assay type in all cases: cell-based
[1] = tested on: HIV-1 NL43; assay: Viral integration in primary resting CD4 T-cells by Alu-PCR; conditions: NL43, 1 μM, T48 h
Protocol: To determine if JQ1(+) affects viral integration in primary resting CD4 T-cells, the cells were purified and infected with HIV-1 NL43 or mock control. The infected cells were then cultured in the presence of 1 μM of JQ1(+) or JQ1(−) for 48 hours. Cell pellets were collected at 0 hours and 48 hours after infection. DNA was isolated and the viral integration in resting CD4 T-cells was measured by Alu-PCR.

[2] = tested on: HIV LTR; assay: Reactivation of the HIV LTR in latently infected J-Lat clones (GFP by flow cytometry); conditions: J-Lat clones, TNFα 20 ng/ml or PHA 1.5 μg/ml, 16 hours
Protocol: (§1) GFP expression was measured by flow cytometry. FIGS. 3B and 3C shown the percentage of cells positive for GFP (FIG. 3B) and the mean MFI of GFP (FIG. 3C) in latently infected cell lines, J-Lat clones 82, A72, A7, A2, and A1, at 16 hours after TNFα or PHA was added in the cultures in the presence of JQ1(+) or JQ1(−). […] GFP expression in cells was measured by flow cytometry and is indicated as percent of GFP+ cells in gated live cell populations. An average of 5 experiments is shown. * p<0.05, ** p<0.01, *** p<0.001. […] Average of 3 experiments is shown. * p<0.05. For FIG. 3F, J-Lat A2 and A72 cells were reactivated with TNFα (20 ng/ml) or HIV Tat protein (50 μg/ml) in the presence of JQ1(+) or JQ1(−) for 16-18 hours, and GFP expression in cells was measured by flow cytometry. One representative experiment is shown. In each dot plot, non-underlined numbers indicate percentage of GFP+ cells and underlined numbers indicate mean fluorescence of GFP (MFI).
(§2) Next, the effect of JQ1 on activation of the HIV LTR was tested using a latently infected Jurkat-derived cell clone, J-Lat clone A2. GFP expression in J-Lat clone A2 is induced upon reactivation with tumor necrosis factor-alpha (TNFα) or phytohaemagglutinin (PHA).
To further study the mechanism of how JQ1 drives reactivation of HIV latency, HIV latently infected T-cell lines—J-Lat clones A1, A2, A7, and A72—were utilized. The effect of JQ1(+) on reactivation of HIV latency in these cell lines were confirmed. TNFα (20 ng/ml) or PHA (1.5 μg/ml) was added to cultures of J-Lat clones in the presence of 1 μM JQ1(+) or JQ1(−). After 16 hours, expression of GFP was measured by flow cytometry. […] In the presence of HIV Tat, BET antagonism enhances Tat-driven transcription of the HIV LTR in J-Lat clones A2 and A72 (FIG. 3F; underlined numbers indicate mean GFP fluorescence, non-underlined numbers indicate percent of GFP+ cells). […] Displacement of Brd4 from chromatin by JQ1(+) may cause conformational change in the chromatin, exposing NF-κb binding sites, leading to increased HIV transcription and reactivation of latency.

[3] = tested on: HIV-1 LTR promoter; assay: Activation of the HIV LTR in CEMss LTR-GFP reporter cells (GFP by flow cytometry); conditions: CEMss LTR-GFP cells, 8 μg/ml HIV-1 Tat alone
Protocol: CEMss LTR-GFP cells were infected with NL43 and cultured in the presence of the BET antagonists JQ1(+) (1 μM) or the control enantiomer JQ1(−). GFP expression in cells was examined by flow cytometry. A representative of three experiments is shown. FIG. 2B provides a graph showing GFP expression in cells when cultured with different amounts of JQ1, as determined by flow cytometry. 0.25 μM of JQ1(+) was sufficient to dramatically increase the expression of GFP in NL43 infected CEMss LTR-GFP cells. FIGS. 2C and 2D show percentage of GFP expression (FIG. 2C) and mean fluorescence of GFP (MFI; FIG. 2D) in CEMss LTR-GFP cells cultured in the presence of JQ1(+) or JQ1(−) (1 μM), and different amount of HIV-1 Tat. FIG. 2E provides dot plots of CEMss LTR-GFP cells were cultured with increasing amounts of HIV Tat (0, 8, 16 or 32 μg/ml) in the presence of JQ1(+) or JQ1(−) (1 μM) for 1 day. Non-underlined numbers indicate percentage of GFP and underlined numbers indicate mean fluorescence of GFP (MFI).
as §1
BET antagonists also drive activation of the HIV LTR. Specifically, the effects of JQ1 on transcription from the HIV LTR were tested. CEMss LTR-GFP cells (a reporter cell line stably transfected with GFP under the control of the HIV-1 LTR promoter) were infected with NL43 and cultured in the presence of BET antagonists or controls. GFP expression was measured at days 0, 1, 2, 3, and 6 post-infection. GFP expression was higher in the presence of the BET inhibitor (JQ1) compared to controls (FIG. 2A). Further, by varying the amount of JQ1, it was determined that 0.25 μM of JQ1(+) was sufficient to dramatically increase Tat-driven HIV-1 transcription (FIG. 2B). CEMss LTR-GFP cells were also cultured in the presence of JQ1(+) or JQ1(−) (1 μM) and different amount of HIV-1 Tat (0-32 μg/ml). […] FIG. 2E provides dot plots of the experiments.
as §2

`Cc1sc2c(c1C)C(c1ccc(Cl)cc1)=N[C@@H](CC(=O)OC(C)(C)C)c1nnc(C)n1-2` [JQ1(−)] was tested, and the provirus/cell ([1]; Exp. 1, primary resting CD4 T-cells) was 0.527 ± 0.064 provirus/cell and the provirus/cell ([1]; Exp. 2, primary resting CD4 T-cells) was 0.400 ± 0.0009 provirus/cell.

TNFα was tested, and the “GFP expression (reactivation of latently infected cells)” value [2] was “induced GFP expression”.

B1: HIV-1 Tat: HIV Tat protein added to reporter cell cultures (protein, UniProt P04608 1-86, looked up)
Protein Tat: MEPVDPRLEPWKHPGSQPKTACTNCYCKKCCFHCQVCFITKALGISYGRKKRRQRRRAHQNSQTHQASLSKQPTSQPRGDPTGPKE
For B1, the “Expression of GFP (percentage)” value [3] was “activated”.
